What was measured:
Assay type in all cases: biochemical
[1] = molecular target: T1, α-Glucosidase (yeast) (Saccharomyces cerevisiae, UniProt P53341); test: Glycosidase inhibition: α-glucosidase (yeast); conditions: α-glucosidase, yeast; 1000 μM
T1 construct: purchased Sigma-Aldrich Co
Source text: (§1) The enzymes α-glucosidase (from yeast, rice), β-glucosidase (from almonds, bovine liver), α-galactosidase (from coffee beans), β-galactosidase (from bovine liver), α-mannosidase (from jack beans), β-mannosidase (from snails), α-L-fucosidase (from bovine kidney), α-L-rhamnosidase (from Penicillium decumbens), β-glucuronidases (from Escherichia coli), α,α-trehalase (from porcine kidney), amyloglucosidase (from Aspergillus niger), p-nitrophenyl glycosides, and various disaccharides were purchased from Sigma-Aldrich Co. Brush border membranes were prepared from the rat small intestine according to the method of Kessler et al., and were assayed at pH 6.8 for rat intestinal maltase using maltose. For rat intestinal glucosidases and porcine kidney trehalase activities, the reaction mixture (0.2 mL) contained 25 mM substrate and the appropriate amount of enzyme, and the incubations were performed for 10 min at 37 °C. The reaction was stopped by heating at 100 °C for 3 min. After centrifugation (600 g; 10 min), 0.035 mL of the resulting reaction mixture were added to 2.1 mL of the Glucose CII-test Wako (Wako Pure Chemical Ind., Osaka, Japan). The absorbance at 505 nm was measured to determine the amount of the released D-glucose. Other glycosidase activities were determined using an appropriate p-nitrophenyl glycoside as substrate at the optimum pH of each enzyme. The reaction mixture (0.2 mL) contained 2 mM of the substrate and the appropriate amount of enzyme. The reaction was stopped by adding 0.4 mL of 400 mM Na2CO3. The released p-nitrophenol was measured spectrometrically at 400 nm.

[2] = molecular target: T2, β-Galactosidase (bovine liver) (Bos taurus, UniProt Q58D55); test: Glycosidase inhibition: β-galactosidase (bovine liver)
T2 sequence (Q58D55 28-653): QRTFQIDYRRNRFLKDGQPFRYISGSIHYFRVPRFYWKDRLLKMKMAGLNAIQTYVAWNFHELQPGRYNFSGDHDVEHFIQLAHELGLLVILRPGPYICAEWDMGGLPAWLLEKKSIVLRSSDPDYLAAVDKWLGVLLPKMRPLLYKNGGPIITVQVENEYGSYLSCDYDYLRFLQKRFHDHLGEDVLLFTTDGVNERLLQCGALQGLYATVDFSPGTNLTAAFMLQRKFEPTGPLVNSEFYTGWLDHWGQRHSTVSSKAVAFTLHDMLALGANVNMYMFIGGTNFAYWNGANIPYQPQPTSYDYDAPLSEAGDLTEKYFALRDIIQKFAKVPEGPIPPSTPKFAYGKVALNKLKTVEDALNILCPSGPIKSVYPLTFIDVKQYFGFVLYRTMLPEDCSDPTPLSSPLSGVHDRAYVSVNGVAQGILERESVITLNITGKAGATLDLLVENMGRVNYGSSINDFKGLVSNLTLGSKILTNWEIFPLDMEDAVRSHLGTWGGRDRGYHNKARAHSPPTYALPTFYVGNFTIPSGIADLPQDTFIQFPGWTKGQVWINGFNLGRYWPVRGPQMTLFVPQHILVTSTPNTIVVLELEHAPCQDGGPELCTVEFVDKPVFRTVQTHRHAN
Source text: as §1, with “After centrifugation (600 g; 10 min), 0.035 mL of the resulting reaction mixture were added to 2.1 mL of the Glucose CII-test Wako (Wako Pure Chemical Ind., Osaka, Japan).” left out, “The reaction mixture (0.2 mL) contained 2 mM of the substrate and the appropriate amount of enzyme. The reaction was stopped by adding 0.4 mL of 400 mM Na2CO3.” left out

[3] = molecular target: T3, α-L-Fucosidase (bovine kidney) (Bos taurus, UniProt Q2KIM0); test: Glycosidase inhibition: α-L-fucosidase (bovine kidney); conditions: read-out: inhibition % at 1000 μM
T3 construct: purchased Sigma-Aldrich Co; host or cells: bovine kidney
T3 sequence (Q2KIM0 23-468): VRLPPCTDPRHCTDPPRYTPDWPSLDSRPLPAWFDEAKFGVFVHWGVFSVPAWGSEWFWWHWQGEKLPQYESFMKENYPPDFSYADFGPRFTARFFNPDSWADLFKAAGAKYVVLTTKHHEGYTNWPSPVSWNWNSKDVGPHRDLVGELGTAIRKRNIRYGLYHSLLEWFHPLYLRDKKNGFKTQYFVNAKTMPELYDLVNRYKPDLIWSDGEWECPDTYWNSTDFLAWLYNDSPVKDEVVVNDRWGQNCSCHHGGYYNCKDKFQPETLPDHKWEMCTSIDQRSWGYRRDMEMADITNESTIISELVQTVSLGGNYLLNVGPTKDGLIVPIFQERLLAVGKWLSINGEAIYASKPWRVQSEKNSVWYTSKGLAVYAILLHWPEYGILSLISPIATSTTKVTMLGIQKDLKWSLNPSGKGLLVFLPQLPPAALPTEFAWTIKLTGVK
Source text: as §1

[4] = molecular target: T4, β-Glucosidase (bovine liver) (Bos taurus, UniProt F1MNT6); test: Glycosidase inhibition: β-glucosidase (bovine liver)
T4 sequence (F1MNT6 1-469): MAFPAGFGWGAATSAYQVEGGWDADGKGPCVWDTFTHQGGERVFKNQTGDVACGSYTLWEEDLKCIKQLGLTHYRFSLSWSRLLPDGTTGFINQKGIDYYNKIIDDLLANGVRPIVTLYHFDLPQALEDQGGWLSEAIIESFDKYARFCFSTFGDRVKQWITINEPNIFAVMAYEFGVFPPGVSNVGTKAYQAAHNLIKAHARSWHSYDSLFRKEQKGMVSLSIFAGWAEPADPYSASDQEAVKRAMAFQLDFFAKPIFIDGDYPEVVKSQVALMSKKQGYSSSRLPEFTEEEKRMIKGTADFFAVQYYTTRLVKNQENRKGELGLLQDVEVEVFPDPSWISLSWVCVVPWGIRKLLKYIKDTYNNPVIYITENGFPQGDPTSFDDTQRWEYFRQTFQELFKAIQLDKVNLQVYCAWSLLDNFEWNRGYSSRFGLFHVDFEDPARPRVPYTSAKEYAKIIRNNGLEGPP
Source text: as §1, with “After centrifugation (600 g; 10 min), 0.035 mL of the resulting reaction mixture were added to 2.1 mL of the Glucose CII-test Wako (Wako Pure Chemical Ind., Osaka, Japan).” left out, “The reaction mixture (0.2 mL) contained 2 mM of the substrate and the appropriate amount of enzyme. The reaction was stopped by adding 0.4 mL of 400 mM Na2CO3.” left out

[5] = molecular target: T5, α-Glucosidase (rice) (Oryza sativa subsp. japonica, UniProt Q653V7); test: Glycosidase inhibition: α-glucosidase (rice); conditions: read-out: inhibition % at 1000 μM
T5 construct: purchased Sigma-Aldrich Co
Source text: as §1

T1 sequence (P53341 whole entry): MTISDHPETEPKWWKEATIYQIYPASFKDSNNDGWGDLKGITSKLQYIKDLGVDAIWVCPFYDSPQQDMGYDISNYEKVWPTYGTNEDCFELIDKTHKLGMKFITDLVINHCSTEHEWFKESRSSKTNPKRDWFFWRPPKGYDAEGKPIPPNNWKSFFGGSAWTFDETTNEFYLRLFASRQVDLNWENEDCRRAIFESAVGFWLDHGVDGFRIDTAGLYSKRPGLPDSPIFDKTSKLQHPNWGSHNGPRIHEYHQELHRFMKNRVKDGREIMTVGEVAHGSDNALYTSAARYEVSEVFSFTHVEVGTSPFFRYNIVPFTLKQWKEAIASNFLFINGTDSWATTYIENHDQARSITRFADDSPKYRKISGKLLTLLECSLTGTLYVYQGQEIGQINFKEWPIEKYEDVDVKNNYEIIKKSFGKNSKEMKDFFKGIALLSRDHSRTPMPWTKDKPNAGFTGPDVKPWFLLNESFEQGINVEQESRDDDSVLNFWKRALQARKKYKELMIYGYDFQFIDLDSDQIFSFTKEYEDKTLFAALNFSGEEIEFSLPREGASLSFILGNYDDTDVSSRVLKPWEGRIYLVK
T5 sequence (Q653V7 34-885): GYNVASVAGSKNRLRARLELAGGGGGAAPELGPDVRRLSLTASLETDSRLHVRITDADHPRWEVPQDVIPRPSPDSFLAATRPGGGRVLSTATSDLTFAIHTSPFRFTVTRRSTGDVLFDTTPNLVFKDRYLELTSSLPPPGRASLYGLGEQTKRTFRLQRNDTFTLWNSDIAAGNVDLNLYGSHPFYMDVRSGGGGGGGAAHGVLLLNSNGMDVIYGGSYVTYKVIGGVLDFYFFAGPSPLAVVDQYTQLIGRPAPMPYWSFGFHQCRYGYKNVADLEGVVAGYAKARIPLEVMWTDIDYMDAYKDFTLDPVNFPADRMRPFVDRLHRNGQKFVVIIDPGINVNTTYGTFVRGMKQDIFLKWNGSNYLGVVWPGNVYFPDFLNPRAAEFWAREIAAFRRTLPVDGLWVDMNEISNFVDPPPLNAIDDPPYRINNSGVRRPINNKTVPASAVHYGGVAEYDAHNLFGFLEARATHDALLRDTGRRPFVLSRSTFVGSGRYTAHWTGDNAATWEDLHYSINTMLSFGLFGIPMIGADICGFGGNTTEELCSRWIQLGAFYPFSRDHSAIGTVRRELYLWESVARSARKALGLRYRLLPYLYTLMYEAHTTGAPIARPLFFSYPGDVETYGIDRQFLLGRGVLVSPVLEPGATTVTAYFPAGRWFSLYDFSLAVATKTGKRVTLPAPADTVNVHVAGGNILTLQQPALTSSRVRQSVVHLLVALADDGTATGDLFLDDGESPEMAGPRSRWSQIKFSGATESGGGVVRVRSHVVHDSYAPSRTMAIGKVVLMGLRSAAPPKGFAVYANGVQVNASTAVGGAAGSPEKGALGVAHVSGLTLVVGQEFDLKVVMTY

SMILES | inhibition at 1000 µM [1] | inhibition at 1000 µM [2] | inhibition at 1000 µM [3] | inhibition at 1000 µM [4] | inhibition at 1000 µM [5]
CC[C@@H]1CN[C@H]2C[C@@H](O)[C@H](O)[C@@H](O)[C@H]12 [Compound 10, (3S,3aR,4S,5S,6R,7aS)-3-Ethyloctahydro-1H-indole-4,5,6-triol] | 16% | < 50% | 7.5% | 0% | 0%
CC[C@H]1CN[C@H]2C[C@@H](O)[C@H](O)[C@@H](O)[C@H]12 [Compound 13, (3R,3aR,4S,5S,6R,7aS)-3-ethyloctahydro-1H-indole-4,5,6-triol] | 19.5% | < 50% | 12.9% | 21.7% | 0%
